Assay results taken from ChEMBL document CHEMBL4825738, “EGFR-targeted prodrug activation using bioorthogonal alkene-azide click-and-release chemistry” (Bioorg Med Chem, 2021).

Experiments:
[1] = system: B16-F10-luc2; experiment: Cytotoxicity against mouse B16-F10-Luc2 cells expressing human EGFR measured after 72 hrs in presence of AB-TCO4 conjugates by resazurin assay; type: functional, cell-based; settings: B16-F10-luc2, 72 h
[2] = system: B16-F10-luc2; experiment: Cytotoxicity against mouse B16-F10-Luc2 cells expressing human EGFR measured after 72 hrs in presence of AB-TCO3 conjugates by resazurin assay; type: functional, cell-based; settings: B16-F10-luc2, 72 h
[3] = system: B16-F10-luc2; experiment: Cytotoxicity against mouse B16-F10-Luc2 cells in the measured after 72 hrs in presence of AB-TCO3 conjugate by resazurin assay; type: functional, cell-based; settings: B16-F10-luc2, 72 h
[4] = system: B16-F10-luc2; experiment: Cytotoxicity against mouse B16-F10-Luc2 cells expressing human EGFR measured after 72 hrs by resazurin assay; type: cell-based; settings: B16-F10-luc2, 72 h
[5] = system: B16-F10-luc2; experiment: Cytotoxicity against mouse B16-F10-Luc2 cells measured after 72 hrs in presence of AB-TCO2 conjugate by resazurin assay; type: functional, cell-based; settings: B16-F10-luc2, 72 h
[6] = system: B16-F10-luc2; experiment: Cytotoxicity against mouse B16-F10-Luc2 cells measured after 72 hrs by resazurin assay; type: cell-based; settings: B16-F10-luc2, 72 h
[7] = system: B16-F10-luc2; experiment: Anti tumour activity in C57BL/6 mouse implanted with B16-F10-Luc2 murine cells assessed as median survival time at 5.9 mg/kg, iv administered for 6 hrs followed by antibody conjugate treatment; type: functional
[8] = system: B16-F10-luc2; experiment: Cytotoxicity against mouse B16-F10-Luc2 cells expressing human EGFR measured after 72 hrs in presence of AB-TCO2 conjugates by resazurin assay; type: functional, cell-based; settings: B16-F10-luc2, 72 h
[9] = system: B16-F10-luc2; experiment: Anti tumour activity in C57BL/6 mouse implanted with B16-F10-Luc2 murine cells assessed as median survival time at 4.5 mg/kg, ip administered for 24 hrs followed by antibody conjugate treatment; type: functional
[10] = system: B16-F10-luc2; experiment: Cytotoxicity against mouse B16-F10-Luc2 cells expressing EGFR measured after 72 hrs in absence of cetuximab by resazurin assay; type: functional, cell-based; settings: B16-F10-luc2, 72 h
[11] = system: B16-F10-luc2; experiment: Cytotoxicity against mouse B16-F10-Luc2 cells expressing EGFR measured after 72 hrs in presence of 3.3 uM cetuximab by resazurin assay; type: functional, cell-based; settings: B16-F10-luc2, 72 h

COc1cccc2c1C(=O)c1c(O)c3c(c(O)c1C2=O)C[C@@](O)(C(=O)CO)C[C@@H]3O[C@H]1C[C@H](NC(=O)OCc2ccc(N=[N+]=[N-])cc2)[C@H](O)[C@H](C)O1
IC50 [1]: 2090 nM
IC50 [2]: 120 nM
IC50 [3]: 3440 nM
IC50 [4]: 1680 nM
IC50 [5]: 5140 nM
IC50 [6]: 4490 nM
MST [7]: 26 days
IC50 [8]: 780 nM

COc1cccc2c1C(=O)c1c(O)c3c(c(O)c1C2=O)C[C@@](O)(C(=O)CO)C[C@@H]3O[C@H]1C[C@H](N)[C@H](O)[C@H](C)O1 [DOXORUBICIN]
MST [9]: 39 days
IC50 [4]: 40 nM
IC50 [10]: 40 nM
IC50 [11]: 90 nM
IC50 [6]: 110 nM
